Experimental data published in patent US20110045101A1, “FUNGICIDAL SUBSTITUTED AZOLES” (E.I. Du Pont De Nemours and Company, priority 2009, published 2011).
Marks after values point to notes of the source that are not given here.

Key:
Assay type in all cases: in vivo
Alternaria solani = assay: Test D: tomato early blight, sprayed the day before inoculation, visual disease rating; settings: 100 = 100% disease control; for pest or weed control at 200 ppm: Alternaria solani, 168 h
In short: (§1)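 Plants received a run-off spray at 200 ppm (equivalent to 500 g/ha) or, for starred values, 40 ppm. Formulation used acetone at 3% of volume in a 50/50 acetone/water mix carrying 250 ppm Trem® 014.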

[1] = test system: Puccinia recondita f. sp. tritici; assay: Test I: wheat leaf rust on wheat seedlings, sprayed the day before inoculation, visual disease rating; settings: 100 = 100% disease control; for pest or weed control at 200 ppm: Puccinia recondita, 168 h
In short: as §1

Septoria tritici = assay: Test G: wheat leaf blotch on wheat seedlings, sprayed the day before inoculation, visual disease rating; settings: 100 = 100% disease control; for pest or weed control at 200 ppm: Zymoseptoria tritici, 504 h
In short: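 Spray to run-off, 200 ppm (≈500 g/ha; starred = 40 ppm), acetone/water 50/50 + 250 ppm Trem® 014. Spore inoculation +1 d. 24° C saturated 48 h → 20° C 19 d. Visual rating.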

[2] = test system: Erysiphe graminis f. sp. tritici; assay: Test J: wheat powdery mildew on wheat seedlings, sprayed the day before inoculation, visual disease rating; settings: 100 = 100% disease control; for pest or weed control at 200 ppm: Blumeria graminis, 168 h
In short: as §1

[3] = test system: Puccinia recondita f. sp. tritici; assay: Test H: wheat leaf rust, test suspension sprayed after inoculation of wheat seedlings, visual disease rating; settings: 100 = 100% disease control; for pest or weed control at 200 ppm: Puccinia recondita, 96 h
In short: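 Wheat seedlings inoculated with P. recondita spores, held 24 h saturated at 20 °C, then 2 days in growth chamber at 20 °C; compound suspension (acetone/water with Trem 014) sprayed to run-off afterwards. Rated visually; 200 ppm (≈500 g/ha) unless marked *, which denotes 40 ppm.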

Septoria nodorum = assay: Test F: wheat glume blotch on wheat seedlings, sprayed the day before inoculation, visual disease rating; settings: 100 = 100% disease control; for pest or weed control at 200 ppm: Parastagonospora nodorum, 264 h
In short: as §1

Botrytis cinerea = assay: Test C: tomato Botrytis on tomato seedlings, sprayed the day before inoculation, visual disease rating; settings: 100 = 100% disease control; for pest or weed control at 200 ppm: Botrytis cinerea, 120 h
In short: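 Rate: 200 ppm sprayed to run-off, corresponding to 500 g/ha; flagged values used 40 ppm. Vehicle was aqueous acetone (1:1) plus 250 ppm surfactant, compounds predissolved in acetone at 3% of volume. Plants were tomato seedlings.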

[4] = 200 ppm, 0 = no control relative to controls
[5] = 40 ppm (marked *), 0 = no control

Structure (SMILES): COc1cc(F)c(-c2c(Cl)nc(Br)n2-c2ccc(C)c(C#N)c2)c(F)c1 [compound 607]
- Test D disease control rating (Alternaria solani; 40 ppm (marked *)): 96* %
- Test I disease control rating ([1]; 40 ppm (marked *)): 86* %
- Test G disease control rating (Septoria tritici; 40 ppm (marked *)): 99* %
- Test J disease control rating ([2]; 40 ppm (marked *)): 82* %
- Test H disease control rating ([3]; 40 ppm (marked *)): 7* %
- Test F disease control rating (Septoria nodorum; 40 ppm (marked *)): 31* %
- Test C disease control rating (Botrytis cinerea; 40 ppm (marked *)): 100* %

Structure (SMILES): COc1cc(F)c(-c2c(Cl)nc(C=O)n2-c2ccc(F)cc2)c(F)c1 [Compound 276, 4-chloro-5-(2,6-difluoro-4-methoxyphenyl)-1-(4-fluorophenyl)-1H-imidazole-2-carboxaldehyde]
- pest or weed control at 200 ppm (Alternaria solani; 200 ppm, 0 = no control): 100%
- pest or weed control at 200 ppm ([1]; 200 ppm, 0 = no control): 98%
- pest or weed control at 200 ppm (Septoria tritici; 200 ppm, 0 = no control): 92%
- pest or weed control at 200 ppm ([2]; 200 ppm, 0 = no control): 100%
- pest or weed control at 200 ppm ([3]; 200 ppm, 0 = no control): 9%
- pest or weed control at 200 ppm (Septoria nodorum; 200 ppm, 0 = no control): 0%
- pest or weed control at 200 ppm (Botrytis cinerea; 200 ppm, 0 = no control): 100%

Structure (SMILES): COc1ccc(F)c(-c2c(Cl)nc(Br)n2-c2ccc(C)c(F)c2)c1F [compound 551]
- Test D disease control rating (Alternaria solani; [4]): 100%
- Test I disease control rating [1, 4]: 100%
- Test G disease control rating (Septoria tritici; [4]): 98%
- Test J disease control rating [2, 4]: 100%
- Test H disease control rating [3, 4]: 0%
- Test F disease control rating (Septoria nodorum; [4]): 96%
- Test C disease control rating (Botrytis cinerea; [4]): 100%

Structure (SMILES): COc1cc(F)c(-c2c(Cl)ncn2Cc2ccc(Cl)cc2)c(F)c1 [compound 268]
- Test D disease control rating (Alternaria solani; 200 ppm, 0 = no control): 100%
- Test I disease control rating ([1]; 200 ppm, 0 = no control): 99%
- Test G disease control rating (Septoria tritici; 200 ppm, 0 = no control): 87%
- Test J disease control rating ([2]; 200 ppm, 0 = no control): 75%
- Test H disease control rating ([3]; 200 ppm, 0 = no control): 63%
- Test F disease control rating (Septoria nodorum; 200 ppm, 0 = no control): 98%
- Test C disease control rating (Botrytis cinerea; 200 ppm, 0 = no control): 99%

Structure (SMILES): COc1cc(F)c(-c2c(Cl)nc(Br)n2-c2ccc(F)c(F)c2)c(F)c1 [compound 484]
- Test D disease control rating (Alternaria solani; [4]): 100%
- Test I disease control rating [1, 4]: 100%
- Test G disease control rating (Septoria tritici; [4]): 95%
- Test J disease control rating [2, 4]: 100%
- Test H disease control rating [3, 4]: 28%
- Test F disease control rating (Septoria nodorum; [4]): 89%
- Test C disease control rating (Botrytis cinerea; [4]): 100%

Structure (SMILES): Cc1ccc(-n2cnc(Br)c2-c2c(F)ccc(F)c2F)cc1 [compound 411]
- Test D disease control rating (Alternaria solani; [4]): 100%
- Test I disease control rating [1, 4]: 99%
- Test G disease control rating (Septoria tritici; [4]): 99%
- Test J disease control rating [2, 4]: 100%
- Test H disease control rating [3, 4]: 0%
- Test F disease control rating (Septoria nodorum; [4]): 0%
- Test C disease control rating (Botrytis cinerea; [4]): 100%

Structure (SMILES): COc1cc(F)c(-c2c(Cl)nc(SC)n2-c2ccc(C)cc2)c(F)c1 [compound 695]
- Test D disease control rating (Alternaria solani; [4]): 99%
- Test I disease control rating [1, 4]: 99%
- Test G disease control rating (Septoria tritici; [4]): 99%
- Test J disease control rating [2, 4]: 96%
- Test H disease control rating [3, 4]: 97%
- Test F disease control rating (Septoria nodorum; [4]): 97%
- Test C disease control rating (Botrytis cinerea; [4]): 100%

Structure (SMILES): Fc1cccc(-n2c(Cl)nc(Cl)c2-c2c(F)ccc(F)c2F)c1 [compound 366]
- Test D disease control rating (Alternaria solani; [4]): 100%
- Test I disease control rating [1, 4]: 99%
- Test G disease control rating (Septoria tritici; [4]): 91%
- Test J disease control rating [2, 4]: 97%
- Test H disease control rating [3, 4]: 41%
- Test F disease control rating (Septoria nodorum; [4]): 64%
- Test C disease control rating (Botrytis cinerea; [4]): 100%

Structure (SMILES): Cc1nc(C)n(-c2ccc(Cl)cc2)c1-c1c(F)ccc(F)c1F [compound 416]
- Test D disease control rating (Alternaria solani; [5]): 100* %
- Test I disease control rating [1, 5]: 26* %
- Test G disease control rating (Septoria tritici; [5]): 97* %
- Test J disease control rating [2, 5]: 99* %
- Test H disease control rating [3, 5]: 0* %
- Test F disease control rating (Septoria nodorum; [5]): 0* %
- Test C disease control rating (Botrytis cinerea; [5]): 100* %

Structure (SMILES): CNC(=O)Cc1nc(Br)c(-c2c(F)cccc2F)n1-c1ccc(Cl)cc1 [Compound 571, 4-bromo-1-(4-chlorophenyl)-5-(2,6-difluorophenyl)-N-methyl-1H-imidazole-2-acetamide]
- pest or weed control at 200 ppm (Alternaria solani; [4]): 0%
- pest or weed control at 200 ppm [1, 4]: 90%
- pest or weed control at 200 ppm (Septoria tritici; [4]): 82%
- pest or weed control at 200 ppm [2, 4]: 0%
- pest or weed control at 200 ppm [3, 4]: 0%
- pest or weed control at 200 ppm (Septoria nodorum; [4]): 0%
- pest or weed control at 200 ppm (Botrytis cinerea; [4]): 33%

Structure (SMILES): COc1ccc(F)c(-c2c(Cl)nc(Br)n2-c2ccc(Cl)nc2)c1F [compound 730]
- Test D disease control rating (Alternaria solani; [4]): 100%
- Test I disease control rating [1, 4]: 99%
- Test G disease control rating (Septoria tritici; [4]): 100%
- Test J disease control rating [2, 4]: 100%
- Test H disease control rating [3, 4]: 9%
- Test F disease control rating (Septoria nodorum; [4]): 99%
- Test C disease control rating (Botrytis cinerea; [4]): 100%

Structure (SMILES): Cc1nc(C)n(-c2ccc(F)cc2Cl)c1-c1ccc(Cl)c(F)c1 [compound 543]
- Test D disease control rating (Alternaria solani; 40 ppm (marked *)): 60* %
- Test I disease control rating ([1]; 40 ppm (marked *)): 95* %
- Test G disease control rating (Septoria tritici; 40 ppm (marked *)): 97* %
- Test J disease control rating ([2]; 40 ppm (marked *)): 0* %
- Test H disease control rating ([3]; 40 ppm (marked *)): 0* %
- Test F disease control rating (Septoria nodorum; 40 ppm (marked *)): 0* %
- Test C disease control rating (Botrytis cinerea; 40 ppm (marked *)): 99* %

Structure (SMILES): COc1cc(F)c(-c2c(Cl)nc(C)n2-c2ccc(C)c(C#N)c2)c(F)c1 [compound 613]
- Test D disease control rating (Alternaria solani; 40 ppm (marked *)): 100* %
- Test I disease control rating ([1]; 40 ppm (marked *)): 97* %
- Test G disease control rating (Septoria tritici; 40 ppm (marked *)): 99* %
- Test J disease control rating ([2]; 40 ppm (marked *)): 21* %
- Test H disease control rating ([3]; 40 ppm (marked *)): 15* %
- Test F disease control rating (Septoria nodorum; 40 ppm (marked *)): 64* %
- Test C disease control rating (Botrytis cinerea; 40 ppm (marked *)): 99* %

Structure (SMILES): Fc1cc(-c2c(CCl)nc(Cl)n2-c2ccc(Cl)c(F)c2)ccn1 [compound 322]
- Test D disease control rating (Alternaria solani; [5]): 0* %
- Test I disease control rating [1, 5]: 28* %
- Test G disease control rating (Septoria tritici; [5]): 0* %
- Test J disease control rating [2, 5]: 0* %
- Test H disease control rating [3, 5]: 63* %
- Test F disease control rating (Septoria nodorum; [5]): 0* %
- Test C disease control rating (Botrytis cinerea; [5]): 62* %

Structure (SMILES): Fc1cccc(F)c1-n1c(-c2ccc(Cl)cc2)cnc1Cl [compound 341]
- Test D disease control rating (Alternaria solani; [5]): 24* %
- Test I disease control rating [1, 5]: 0* %
- Test G disease control rating (Septoria tritici; [5]): 0* %
- Test J disease control rating [2, 5]: 0* %
- Test H disease control rating [3, 5]: 9* %
- Test F disease control rating (Septoria nodorum; [5]): 0* %
- Test C disease control rating (Botrytis cinerea; [5]): 91* %

Structure (SMILES): COc1ccc(-c2c(Cl)nc(Br)n2-c2ccc(F)cc2)c(Cl)c1 [compound 725]
- Test D disease control rating (Alternaria solani; [4]): 99%
- Test I disease control rating [1, 4]: 91%
- Test G disease control rating (Septoria tritici; [4]): 99%
- Test J disease control rating [2, 4]: 98%
- Test H disease control rating [3, 4]: 15%
- Test F disease control rating (Septoria nodorum; [4]): 73%
- Test C disease control rating (Botrytis cinerea; [4]): 100%

Structure (SMILES): COc1cc(F)c(-c2c(Cl)nc(Cl)n2-c2ccc(C)nc2)c(F)c1 [compound 553]
- Test D disease control rating (Alternaria solani; [4]): 100%
- Test I disease control rating [1, 4]: 100%
- Test G disease control rating (Septoria tritici; [4]): 99%
- Test J disease control rating [2, 4]: 100%
- Test H disease control rating [3, 4]: 100%
- Test F disease control rating (Septoria nodorum; [4]): 100%
- Test C disease control rating (Botrytis cinerea; [4]): 100%
